Measurements as given in publication PMC12091851, “Replacing a Cereblon Ligand by a DDB1 and CUL4 Associated Factor 11 (DCAF11) Recruiter Converts a Selective Histone Deacetylase 6 PROTAC into a Pan‐Degrader” (Chemmedchem, 2025).

Assays:
HDAC1, 2, 4, and 6 = test: Immunoblot HDAC isoform degradation in MM.1S, all tested isoforms; type: cell-based, human; details: MM.1S cells, 10 μM, 24 h
Description: Figure 6 Examination of HDAC isoform degradation. MM.1S cells were treated with the indicated compounds (10 μM) or vehicle (DMSO) for 24 h. HDAC1, 2, 4, and 6 levels were analyzed by immunoblotting. (A) Representative images from a total of n=3 biological replicates.
2.5. Aqueous Stability Assay
For stability testing in aqueous solution, a 10-fold concentrated DMSO solution of the respective compounds was diluted in DPBS to generate a 10 µM concentration (final DMSO content of 10%).
Samples of the aqueous solutions were taken after 0, 24, 48, and 72 h at room temperature and the amounts of the parental compound and potential fragments were monitored by HPLC gradient A (see 3.1 General Information). The peak area of the 0 h sample was used for normalization. All compounds were tested in duplicates and GraphPad Prim was used for evaluation and data visualization.
The cell lysis was performed as descripted in 3.2. Simple Western Immunoassay. Samples were denatured by Laemmli 2× Concentrate (Catalog# S3401-10VL, Sigma-Aldrich) for 5 min at 95 °C, and […]
Bio-Rad, Hercules, CA, USA). […]
6.1 (Bio-Rad) for quantification. […]
In vitro inhibitory activities against HDAC1, 2 , and 6 were measured using a previously published protocol.[3] In vitro inhibitory activities against HDAC4 were measured using a previously published protocol with slight modifications. […]

[1] = tested on: acetylated α-tubulin and histone H3; test: Cellular target engagement, immunoblot of acetylated α-tubulin and histone H3 in MM.1S; type: cell-based, human; details: MM.1S cells, 10 μM, 24 h; compared to 2 and A6
Description: Moreover, the capability to reduce the enzymatic activity of HDACs was confirmed by a cellular target engagement assay. MM.1S cells were treated with the PROTACs and the level of acetylated HDAC substrate proteins was subsequently determined. Class I HDACs deacetylate histone H3, and thus hyperacetylation of histone H3 indicates class I HDAC inhibition. Conversely, hyperacetylation of α‐tubulin serves a marker of HDAC6 inhibition. Both hit compounds are capable of inhibiting class I and HDAC6 in a cellular environment, confirming effective target engagement in MM.1S cells (Figure 5). With regards to the HDAC6 inhibition, the trend of the enzyme inhibition data was thus confirmed. […]
Samples of the aqueous solutions were taken after 0, 24, 48, and 72 h at room temperature and the amounts of the parental compound and potential fragments were monitored by HPLC gradient A (see 3.1 General Information). […]
(§1) Afterwards, proteins were transferred with the Trans -Blot Turbo Transfer System (Catalog# 1704150, Bio-Rad) to Immobilon-FL PVDF membranes (Catalog# IPFL00005, Mill ipore Merck, Burlington, MA, USA) at 1.0 A for 30 min and treated with 5% milk-powder solution for 1 h at room temperature under slight agitation. […] The ChemiDoc XRS+ System (Catalog# 1708265 , Bio-Rad) was used for detection and Image Lab Software 6.1 (Bio-Rad) for quantification. […]

HDAC4 = HDAC4 (Homo sapiens, UniProt P56524); test: Immunoblot HDAC4 degradation in MM.1S cell lysates; type: cell-based; design: endogenous in cells; host or cells: MM.1S; details: MM1.S, MM.1S cells, 24 h, read-out: maximal degradation (Dmax) HDAC4
Description: Figure 6 Examination of HDAC isoform degradation. MM.1S cells were treated with the indicated compounds (10 μM) or vehicle (DMSO) for 24 h. HDAC1, 2, 4, and 6 levels were analyzed by immunoblotting. (A) Representative images from a total of n=3 biological replicates. […]
The cell lysis was performed as descripted in 3.2. Simple Western Immunoassay. Samples were denatured by Laemmli 2× Concentrate (Catalog# S3401-10VL, Sigma-Aldrich) for 5 min at 95 °C, and Precision Plus Protein Unstained Standard was used as molecular weight marker (Catalog# 1610363, Bio-Rad, Hercules, CA, USA). SDS-PAGE was performed with 10 or 12% Mini-PROTEAN TGX Stain-Free Gel (Catalog# 458035, Bio -Rad) at 200 V for 50 min (Catalog# 458035, Bio -Rad).
as §1

Chain of HDAC4 (P56524 whole entry, canonical isoform): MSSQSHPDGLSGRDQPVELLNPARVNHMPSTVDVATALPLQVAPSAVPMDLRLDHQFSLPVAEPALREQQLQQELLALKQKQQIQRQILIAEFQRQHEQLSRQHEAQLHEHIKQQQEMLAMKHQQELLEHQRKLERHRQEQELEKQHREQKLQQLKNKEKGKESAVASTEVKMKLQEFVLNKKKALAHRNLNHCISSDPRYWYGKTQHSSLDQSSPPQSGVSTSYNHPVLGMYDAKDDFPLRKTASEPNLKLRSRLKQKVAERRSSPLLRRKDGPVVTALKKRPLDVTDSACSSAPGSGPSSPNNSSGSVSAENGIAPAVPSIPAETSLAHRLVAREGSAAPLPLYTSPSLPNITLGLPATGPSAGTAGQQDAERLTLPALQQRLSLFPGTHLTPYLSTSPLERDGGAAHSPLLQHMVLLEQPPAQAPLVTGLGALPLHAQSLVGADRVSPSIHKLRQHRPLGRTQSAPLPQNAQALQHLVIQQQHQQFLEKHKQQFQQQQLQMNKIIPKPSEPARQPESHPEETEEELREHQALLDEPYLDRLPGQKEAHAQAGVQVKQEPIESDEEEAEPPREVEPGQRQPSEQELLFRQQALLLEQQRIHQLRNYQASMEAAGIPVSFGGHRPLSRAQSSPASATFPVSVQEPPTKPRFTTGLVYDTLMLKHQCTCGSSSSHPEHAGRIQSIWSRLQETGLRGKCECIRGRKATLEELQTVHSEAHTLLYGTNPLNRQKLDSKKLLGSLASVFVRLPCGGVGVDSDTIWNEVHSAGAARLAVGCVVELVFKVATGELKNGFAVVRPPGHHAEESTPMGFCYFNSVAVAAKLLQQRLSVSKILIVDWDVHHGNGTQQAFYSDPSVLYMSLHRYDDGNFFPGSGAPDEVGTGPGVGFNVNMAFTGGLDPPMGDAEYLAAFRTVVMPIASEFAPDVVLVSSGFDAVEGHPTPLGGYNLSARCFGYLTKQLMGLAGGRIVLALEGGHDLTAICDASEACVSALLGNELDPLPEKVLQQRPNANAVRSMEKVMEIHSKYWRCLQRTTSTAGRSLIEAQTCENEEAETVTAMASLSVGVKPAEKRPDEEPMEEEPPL

Dmax at 10 µM (HDAC4) | SMILES | Dmax, all four tested isoforms / other HDAC isoforms (HDAC1, 2, 4, and 6) | histone H3 hyperacetylation [1]
71 to 76% | O=C(CCCCCCNC(=O)c1ccc(NC(=O)CCCCCCCCCCCN(C(=O)CCl)C(C(=O)NCc2ccccc2)c2ccc(Cl)c(Cl)c2)cc1)NO (stereo not shown) [Compound 1j] | 71–90% | more pronounced
40% | O=C(CCCCCCNC(=O)c1ccc(N(C(=O)CCl)C(C(=O)NCc2ccccc2)c2ccc(Cl)c(Cl)c2)cc1)NO (stereo not shown) [Compound 2] |  | 
